pIC50: −log10 of the molar value.
Target: Nicotinamide phosphoribosyltransferase (Homo sapiens, UniProt P43490)
Experiment: Measurement of NamPT Inhibitory Ability IC50
Description: To test the effect of the compound prepared in each Example on the substrate decomposition rate (Vmax/min) mediated by NamPT enzyme, IC50 was calculated. In this experiment, the NamPT colorimetric assay kit (ab221819) produced by Abcam was used, and Graph prism software was used for IC50 calculation. PRPP, ATP, NMNAT1, NamPT recombinant proteins, and various concentrations of the compound of each Example (half-log step dilution from 100 μM) were added to nicotinamide to synthesize nicotinamide adenine dinucleotide (NAD) from the nicotinamide, and a total of 60 μL of the reaction solution was reacted at room temperature for 1 hour. WST-1 formazan converted by NAD generated by adding WST-1 was measured. The result of the reaction was obtained by the following formula by measuring absorbance using EnVision2105 (PerkinElmer) at 450 nm for 60 minutes at 2-minute intervals.

Sequence of Nicotinamide phosphoribosyltransferase (P43490 whole entry): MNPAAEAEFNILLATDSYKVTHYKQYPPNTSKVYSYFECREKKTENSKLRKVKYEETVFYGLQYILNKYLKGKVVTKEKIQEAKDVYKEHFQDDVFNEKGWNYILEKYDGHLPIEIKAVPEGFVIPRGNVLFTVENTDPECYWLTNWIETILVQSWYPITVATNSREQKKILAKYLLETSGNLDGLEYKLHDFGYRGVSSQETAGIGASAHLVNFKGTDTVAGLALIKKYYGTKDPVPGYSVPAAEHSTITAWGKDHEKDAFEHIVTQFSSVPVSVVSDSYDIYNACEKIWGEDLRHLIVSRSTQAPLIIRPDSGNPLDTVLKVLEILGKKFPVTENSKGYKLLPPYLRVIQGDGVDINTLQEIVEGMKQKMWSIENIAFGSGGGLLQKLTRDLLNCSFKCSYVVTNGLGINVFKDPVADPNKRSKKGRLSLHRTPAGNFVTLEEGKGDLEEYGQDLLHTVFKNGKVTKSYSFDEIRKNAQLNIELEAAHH

Cc1ccc2sc(-c3ccc(CNC(=O)c4cnc5nccn5c4)cc3)nc2c1 [US20260022122, Example 48]
pIC50: > 7.30

CC(C)c1ccc2nc(-c3ccc(CNC(=O)c4cnc5nccn5c4)cc3)oc2c1
pIC50: > 7.30

CS(=O)(=O)Nc1ccc2oc(-c3ccc(CNC(=O)c4cnc5nccn5c4)cc3)nc2c1 [US20260022122, Example 47]
pIC50: > 7.30

Reference: BindingDB's records for patent US20260022122 (Checkmate Therapeutics, 2026)
